# Laboratory results published in US20230346952A1, “CANNABINOID GLYCOSIDE PRODRUGS AND METHODS OF SYNTHESIS” (priority 2015, published 2023).
# Key:
# [1] = Antimicrobial activity observed in phytocannabinoid glycosylation reaction mixtures; conditions: large-scale glycosylation reaction mixtures
# [2] = Rat plasma toxicokinetics post VB302 administration at 1,000 mg/kg; conditions: both, Sprague Dawley, po, 1000 mg/kg, AUC in plasma, post VB302 oral gavage 1,000 mg/kg, 1, 2, 6, 24 hours, label = analyte in plasma
# [3] = target: safety screen panel of human pharmacological targets (Homo sapiens, UniProt P21554); test: biochemical; conditions: read-out: percent inhibition: CB1 (h) (agonist radioligand)
# [4] = Rat plasma toxicokinetics post VB311 administration at 1,000 mg/kg; conditions: for relative amount in plasma: label = analyte
# [5] = target: T1, human cannabinoid receptor type 1 (CB1R) (Homo sapiens, UniProt P21554); type: binding; conditions: 10 µM test compound; 2.0 nanomolar [3H] SR141716A; human recombinant Chem-1 cells; 90 minutes at 37 C
# T1 construct: expressed in transfected cells; host or cells: Chem-1 cells
# [6] = tested on: Lallzyme Beta™ (Lallemand); test: In vitro digestion with Lallzyme Beta; conditions: 5 mg/ml Lallzyme Beta, 20 mM citrate buffer pH 4.0, 44° C.; HPLC
# [7] = tested on: Vinotaste Pro (Novozymes); test: In vitro digestion with Vinotaste Pro; conditions: same digestion conditions as for Lallzyme Beta; HPLC
# glycoside hydrolases = test: In vitro digestion screening with commercially available glycoside hydrolases (Table K); conditions: Enzyme 1 of Table K
# [8] = 24 hours post VB311 oral gavage
# T1 sequence (P21554 whole entry): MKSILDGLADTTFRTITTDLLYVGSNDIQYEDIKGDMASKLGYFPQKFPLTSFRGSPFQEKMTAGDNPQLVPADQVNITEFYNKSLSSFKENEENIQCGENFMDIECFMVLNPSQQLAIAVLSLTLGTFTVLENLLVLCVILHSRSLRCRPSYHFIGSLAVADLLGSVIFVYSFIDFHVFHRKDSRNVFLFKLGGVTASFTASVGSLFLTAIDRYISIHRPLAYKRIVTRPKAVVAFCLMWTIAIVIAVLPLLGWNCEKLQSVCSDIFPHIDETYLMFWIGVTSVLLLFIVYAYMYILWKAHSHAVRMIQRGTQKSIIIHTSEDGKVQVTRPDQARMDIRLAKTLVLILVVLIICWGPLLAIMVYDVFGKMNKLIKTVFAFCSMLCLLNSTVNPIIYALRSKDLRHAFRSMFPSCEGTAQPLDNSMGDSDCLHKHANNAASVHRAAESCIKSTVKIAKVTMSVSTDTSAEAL
# safety screen panel of human pharmacological targets, sequence (P21554 whole entry): as above
Compound,antimicrobial activity [1],AUC [2] [µg·h/mL],inhibition at 10 µM [3] [%],relative amount in plasma ([4]; 1 hour post VB311 oral gavage),relative amount in plasma ([4]; 2 hours post VB311 oral gavage),relative amount in plasma ([4]; 6 hours post VB311 oral gavage),"relative amount in plasma [4, 8]",plasma concentration of VB302 relative to VB311 ([4]; after VB311 administration) [x],percent displacement of [3H] SR141716A at human CB1R [5] [%],digestion by Lallzyme Beta (extent / products) [6],digestion by Vinotaste Pro (extent / products) [7],digestion by glycoside hydrolase (activity / product) (glycoside hydrolases)
"CCCCCc1cc(O)c2c(c1)OC(C)(C)[C@@H]1CCC(C)=C[C@@H]21 [VB301, Δ9-Terahydrocannabinol, reference compound]",noticeable antimicrobial activity,0.072,,,,,,,,,,
"CCCCCc1cc(O[C@@H]2O[C@H](CO)[C@@H](O)[C@H](O)[C@H]2O)c2c(c1)OC(C)(C)[C@@H]1CCC(C)=C[C@@H]21 [VB302, Δ9THC-1-O-glucopyranoside]",,167,-3,Minor quantities,Minor quantities,predominant THC-glycoside present in the plasma,relative abundance was greatly increased,2.2,-3,unable to hydrolyze VB302 back to THC,,
CCCCCc1cc(O[C@@H]2O[C@H](CO[C@@H]3O[C@H](CO)[C@@H](O)[C@H](O)[C@H]3O)[C@@H](O[C@@H]3O[C@H](CO)[C@@H](O)[C@H](O)[C@H]3O)[C@H](O)[C@H]2O)c2c(c1)OC(C)(C)[C@@H]1CCC(C)=C[C@@H]21 [VB311],,,3,relative majority of glycosides present in the plasma,majority of glycosides present in the plasma,extensively modified,almost completely digested,,3,very low activity,capable of hydrolyzing,digests VB311 to V310
